How the values were obtained:
[1] = tested on: breast cancer cell lines (BCLs); assay: MTS cell viability assay in breast cancer cell lines; assay type: cell-based, human; details: for drug-response profiles of BCLs (high- or low-dose sensitive) versus abexinostat profiles: other HDACi compounds; for drug-response profiles of BCLs (high- or low-dose sensitive) versus abexinostat profiles / IC50: 72 h; for IC50: Homo sapiens, 72 h treatment, MTS
Procedure: A large series of cell lines (16 BCLs) were exposed to increasing concentrations (150 nM-2.5 μM) of the abexinostat, for 72 hours. These series represent all the molecular diversity observed in breast cancers.
Cell lines. A total of 16 breast cancer cell lines (BCLs) were used for the study. HCC1500, HCC1937, HCC1954, Hs 578T, MCF7, MDA-MB-134, MDA-MB-231, MDA-MB-361, MDA-MB-436, […] were obtained from American type culture collection (http://www.atcc.org/). SUM149 and SUM159 were obtained from Dr S.
Ethier's (Karmanos Cancer Center, Detroit, Mich., USA). S68 was obtained from Dr V. Castros (University de Rennes, France) and Br-Ca-MZ-01 from Dr V. Möbus (University of Ulm, Germany). All BCLs tested were derived from carcinomas. BCLs were grown using the recommended culture conditions (Neve et al, Cancer Cell 2006).
Drugs. BCLs were continuously treated for 72h in adherent conditions with Histone Deacetylase Inhibitors (HDACi): abexinostat, SAHA and valproic acid. For experiments abexinostat was prepared in a 23,1 mM stock solution, SAHA in a 0.5M stock solution, in Dimethyl Sulfoxide (DMSO) and stored at −20° C. Valproic acid was prepared in a 1M stock solution in Phosphate Buffered Saline (PBS) and stored at 4° C. For experiments, cells were treated with respective IC50s. DMSO or PBS were used as vehicle control (C<0.1%).
Cell viability. Inhibitory Concentrations 50 (IC50s) were evaluated using 3-(4,5-dimethylthiazol-2-yl)-5-(3-carboxymethoxyphenyl)-2-(4-sulfophenyl)-2H-tetrazolium (MTS) assay. BCLs were plated in adherent condition in 96-well plates at 5,000 cells per well; except for SUM159 plated at 1,000 cells per well. After 24 h, treatment with serial dilutions of HDACi was started. The effect of treatment on cell viability was estimated after 72 h by addition of 100 μL MTS solution (5 mg/mL in PBS) in each well. Cells were then incubated for 1 h at 37° C. Absorbance was measured at 540 nm in a fluorescence plate reader.

[2] = tested on: patient-derived xenografts CRCM226X, CRCM392X, CRCM389X; assay: Reimplantation of cells from treated PDXs into secondary mice (tumorigenicity); assay type: in vivo, NOD/SCID mice
Procedure: (§1) Six mice were injected for each PDX and for each group. After 1, 2 and 3 weeks of treatment, two mice from each group were sacrificed according to ethic statements. Tumors were dissociated and cells were analyzed for the ALDEFLUOR phenotype and tumorsphere formation capacity. Cells from 3-week treated mice were reimplanted into secondary NOD/SCID mice with injection of 1,000 cells for each treated tumor.
Tumor growth was compared with that of placebo-treated controls. An inhibition of the CRCM226X (Xist^low) PDX growth after abexinostat and docetaxel treatment was observed. […] After three weeks of treatment, the animals were sacrificed and the proportion of ALDEFLUOR-positive CSCs was measured in each residual tumor (FIG. 6B). All PDX models presented an increase in the ALDEFLUOR-positive population isolated from docetaxel-treated tumors compared to the untreated control. […] Tumorigenicity is directly related to the presence of CSCs and this assay gives an estimate of the proportion of residual tumorigenic CSCs. For each treatment condition (placebo, abexinostat, docetaxel), 1,000 cells isolated from treated-tumors were reimplanted.

[3] = tested on: ALDEFLUOR-positive CSC population of PDXs CRCM226X, CRCM392X, CRCM389X; assay: ALDEFLUOR assay on residual PDX tumors; assay type: in vivo, NOD/SCID mice; details: after three weeks of treatment
Procedure: (§2) Animal models Cells from these PDXs were transplanted orthotopically into fat pads of NOD/SCID mice without cultivation in vitro. Single cancer cells (1,000,000 cells CRCM226X and CRCM389X, 125,000 cells CRCM392X) are injected into fat pads of NOD/SCID mice and tumor growth are monitored. When the tumor size was approximately 150 mm^3, treatment is started with abexinostat (i.p, 12.5 mg/Kg, twice a day, 5 out of 7 days for three weeks) or docetaxel (10 mg/kg weekly for three weeks) or placebo.
as §1
ALDEFLUOR assay The ALDEFLUOR kit (Stem Cell Technologies) was used to isolate the population with high aldehyde dehydrogenase (ALDH) enzymatic activity using an LSR2 cytometer as previously described (Ginestier et al, Cell Stem Cell, 2007). For BCLs cultivated in adherent condition, ALDEFLUOR-positive populations were evaluated after 72-hour treatment with HDACi (IC50s) or vehicle. Primary human xenografts CRCM226X, CRCM389X and CRCM392X were harvested on the 3rd week of treatment with abexinostat, docetaxel or placebo, dissociated and stained for ALDEFLUOR analysis. To eliminate cells of mouse origin from the xenotransplanted tumors, staining with an anti-H2K^d biotin antibody (1/200; BD Biosciences) followed by staining with a secondary antibody labeled with streptavidin e450 (1/200; eBioscience) was used.

[4] = tested on: patient-derived xenografts CRCM226X, CRCM392X, CRCM389X; assay: Tumor growth of patient-derived xenografts under treatment; assay type: in vivo, NOD/SCID mice; details: abexinostat i.p. 12.5 mg/Kg twice a day 5 of 7 days, docetaxel 10 mg/kg weekly, three weeks
Source text: To confirm the impact of abexinostat treatment on the CSC population from breast cancers with low XIST expression, three different patient-derived xenografts (PDXs) with distinct Xist expression level (CRCM226X, Xist^low; CRCM392X, Xist^med; CRCM389X, Xist^high) were utilized.
as §2, §1

[5] = CRCM226X (Xist low), 1,000 cells from 3-week treated tumors reimplanted
[6] = CRCM389X (Xist high), 1,000 cells from 3-week treated tumors reimplanted
[7] = CRCM392X (Xist med), 1,000 cells from 3-week treated tumors reimplanted

Row | SMILES | drug-response profiles of BCLs (high- or low-dose sensitive) versus abexinostat profiles [1] | tumor regrowth after reimplantation versus placebo-treated [2, 5] | tumor regrowth after reimplantation versus placebo-treated [2, 6] | tumor regrowth after reimplantation versus placebo-treated [2, 7] | IC50 ([1]; nine BCLs sensitive to low-dose) | IC50 ([1]; seven BCLs sensitive to high-dose) | ALDEFLUOR-positive population versus untreated control ([3]; CRCM226X (Xist low)) | ALDEFLUOR-positive population versus untreated control ([3]; CRCM389X (Xist high)) | ALDEFLUOR-positive population versus untreated control ([3]; CRCM392X (Xist med)) | PDX tumor growth versus placebo ([4]; CRCM226X (Xist low)) | PDX tumor growth versus placebo ([4]; CRCM389X (Xist high)) | PDX tumor growth versus placebo ([4]; CRCM392X (Xist med)) | drug-response profile compared to abexinostat profile ([1]; conventional chemotherapeutic agent, BCLs)
1 | O=C(CCCCCCC(=O)Nc1ccccc1)NO [SAHA, vorinostat] | confirmed |  |  |  |  |  |  |  |  |  |  |  | 
2 | CCCC(CCC)C(=O)O [Valproic Acid, valproic acid] | confirmed |  |  |  |  |  |  |  |  |  |  |  | 
3 | CN(C)Cc1c(C(=O)NCCOc2ccc(C(=O)NO)cc2)oc2ccccc12 [abexinostat] |  | incapacity to regenerate a tumor | higher regrowth kinetic | delay in tumor regrowth | 170 to 460 nM | > 700 nM | two-fold decrease | increase | two-fold decrease | inhibition | no or discrete effect | no or discrete effect | 
4 | CC(=O)O[C@@]12CO[C@@H]1C[C@H](O)[C@@]1(C)C(=O)[C@H](O)C3=C(C)[C@@H](OC(=O)[C@H](O)[C@@H](NC(=O)OC(C)(C)C)c4ccccc4)C[C@@](O)([C@@H](OC(=O)c4ccccc4)[C@H]21)C3(C)C [docetaxel] |  | tumor regrowth comparable to placebo-treated tumors | tumor regrowth comparable to placebo-treated tumors | tumor regrowth comparable to placebo-treated tumors |  |  | increase | increase | increase | inhibition | no or discrete effect | no or discrete effect | totally distinct

— US20160040251A1, “BIOMARKERS FOR THE IDENTIFICATION OF CHEMOSENSITIVITY” (PHARMACYCLICS, LLC, priority 2013, published 2016)
